Reference: patent US7812172B2, “Thiazolothiazole derivative” (Fuji Xerox Co., Ltd., priority 2008, dated 2010)
Where two headings read alike, the source gives them in different places.

Experiment: Evaluation of solubility of thiazolothiazole derivatives in organic solvents
Format: physicochemical
Details: for solubility: organic solvent or mixture, thermodynamic from solid, 25° C., else heated to boiling temperature, naked eye
Experimental: In the present exemplary embodiment, the term “dissolve” refers to a state in which, after the thiazolothiazole derivative according to the present exemplary embodiment is added to an organic solvent, no crystal is observed by observation with the naked eye. The term “high solubility” or “good solubility” refers to such properties that the thiazolothiazole derivative dissolves at the boiling temperature of the organic solvent.
The solubility test is performed as follows:
10 mg (1.0 weight %) of an exemplary compound to be tested is dissolved in 1 ml of a solvent (such as dichlorobenzene, monochlorobenzene, chloroform, THF, toluene or xylene). […] The degree of dissolution is observed with the naked eye.
A: dissolves even when heating is not conducted
B: completely dissolves when heating is conducted
C: a large proportion thereof dissolves when heating is conducted
D: a small proportion thereof dissolves when heating is conducted

[1] = 10 mg (1.0 weight %) in 1 ml THF, read-out: Solubility THF
[2] = 10 mg (1.0 weight %) in 1 ml chloroform, read-out: Solubility Chloroform
[3] = 10 mg (1.0 weight %) in 1 ml dichlorobenzene, read-out: Solubility Dichlorobenzene
[4] = 10 mg (1.0 weight %) in 1 ml monochlorobenzene, read-out: Solubility Monochlorobenzene
[5] = 10 mg (1.0 weight %) in 1 ml toluene, read-out: Solubility Toluene
[6] = 10 mg (1.0 weight %) in 1 ml xylene, read-out: Solubility Xylene

Row | Compound | solubility [1] | solubility [2] | solubility [3] | solubility [4] | solubility [5] | solubility [6] | Solubility in organic solvents (in words) (organic solvents, general statement)
1 | CCCCCCCCc1ccc(-c2cc(C)c(-c3nc4sc(-c5sc(-c6ccc(CCCCCCCC)cc6)cc5C)nc4s3)s2)cc1 [Exemplary Compound (8)] | > 10000 µg/mL | < 10000 µg/mL | > 10000 µg/mL | > 10000 µg/mL | < 10000 µg/mL | < 10000 µg/mL | 
2 | c1csc(-c2ccc(-c3nc4sc(-c5ccc(-c6cccs6)s5)nc4s3)s2)c1 [Compound 3, reference compound] | < 10000 µg/mL | < 10000 µg/mL | < 10000 µg/mL | < 10000 µg/mL | < 10000 µg/mL | < 10000 µg/mL | hardly dissolves
3 | CCCCCCCCc1ccc(-c2cc(CCCCCCCC)c(-c3nc4sc(-c5sc(-c6ccc(CCCCCCCC)cc6)cc5CCCCCCCC)nc4s3)s2)cc1 [Exemplary Compound (27)] | > 10000 µg/mL | > 10000 µg/mL | > 10000 µg/mL | > 10000 µg/mL | > 10000 µg/mL | > 10000 µg/mL | 
4 | CCCCCCCCc1cc(-c2ccc(CCCC)cc2)sc1-c1nc2sc(-c3sc(-c4ccc(CCCC)cc4)cc3CCCCCCCC)nc2s1 [Exemplary Compound (25)] | > 10000 µg/mL | > 10000 µg/mL | > 10000 µg/mL | > 10000 µg/mL | > 10000 µg/mL | > 10000 µg/mL | 
5 | CCCCOc1ccc(-c2ccc(-c3nc4sc(-c5ccc(-c6ccc(OCCCC)cc6)s5)nc4s3)s2)cc1 [Exemplary Compound (11)] | < 10000 µg/mL | < 10000 µg/mL | < 10000 µg/mL | < 10000 µg/mL | < 10000 µg/mL | < 10000 µg/mL | 
6 | CCCCc1ccc(-c2ccc(-c3nc4sc(-c5ccc(-c6ccc(CCCC)cc6)s5)nc4s3)s2)cc1 [Exemplary Compound (1)] | < 10000 µg/mL | < 10000 µg/mL | < 10000 µg/mL | < 10000 µg/mL | < 10000 µg/mL | < 10000 µg/mL | 
7 | CCCCCCCCCCCCc1ccc(-c2cc(CCCCCCCC)c(-c3nc4sc(-c5sc(-c6ccc(CCCCCCCCCCCC)cc6)cc5CCCCCCCC)nc4s3)s2)cc1 [Exemplary Compound (28)] | > 10000 µg/mL | > 10000 µg/mL | > 10000 µg/mL | > 10000 µg/mL | > 10000 µg/mL | > 10000 µg/mL | 
8 | CC(C)(C)c1ccc(-c2ccc(-c3nc4sc(-c5ccc(-c6ccc(C(C)(C)C)cc6)s5)nc4s3)s2)cc1 [Exemplary Compound (15)] | < 10000 µg/mL | < 10000 µg/mL | < 10000 µg/mL | < 10000 µg/mL | < 10000 µg/mL | < 10000 µg/mL | 
